Test results as given in the Deep4Chem optical property database.
Where “and” joins values, the source holds several entries; their conditions need not be identical. Equal values may be shown once.

Assay: solvent given as SMILES

c1ccc2c(c1)c1ccccc1n2-c1ccc2cc(-c3ccc(-c4ccc(-c5cc6ccc(-n7c8ccccc8c8ccccc87)cc6o5)cc4)cc3)oc2c1
fluorescence lifetime (in Cc1ccccc1): 0.97 ns | fluorescence lifetime (in c1ccc2c(c1)c1ccccc1n2-c1ccc(-c2ccc(-n3c4ccccc4c4ccccc43)cc2)cc1): 1.5 ns

CN(C)c1ccc(-c2c(/C=C3/C=Cc4ccccc4N3C)c(=O)c2=O)cc1
fluorescence lifetime (in C1CCCCC1): 1.54 ns | fluorescence lifetime (in Cc1ccccc1): 2.48 ns | fluorescence lifetime (in ClCCl): 0.15 ns

CC1=C(I)C(C)=[N+]2C1=C(c1c(-c3ccccn3)nc3ccccn13)c1c(C)cc(C)n1[B-]2(F)F
fluorescence lifetime (in ClCCl): 0.3 ns

CCCCCCCCN1C(=O)c2ccc3c4c(-c5ccc6c(c5)c5ccccc5n6-c5ccccc5)cc5c6c(cc(-c7ccc8c(c7)c7ccccc7n8-c7ccccc7)c(c7ccc(c2c37)C1=O)c64)C(=O)N(CCCCCCCC)C5=O
fluorescence lifetime (in ClC(Cl)Cl): 4.1 ns

CCCCCCCCCCCCOc1cc2c3c(ccc4c5c(SCCCCCCCCCCCC)cc6c7c(ccc(c1c34)c75)C(=O)N(C1CCCCC1)C6=O)C(=O)N(C1CCCCC1)C2=O
fluorescence lifetime (in ClC(Cl)Cl): 7.8 ns

CCOC(=O)CN1C(=O)C2=C(c3ccc(N4CCCCC4)cc3)N(CC(=O)OCC)C(=O)C2=C1c1ccc(C#N)cc1
fluorescence lifetime (in CC#N): 3.57 ns | fluorescence lifetime (in CS(C)=O): 3.72 ns | fluorescence lifetime (in Cc1ccccc1): 4.41 ns

O=C1c2ccccc2-c2cccc(O)c21
fluorescence lifetime (in C1CCCCC1): 1.24 ns | fluorescence lifetime (in C1COCCO1): 3.38 ns | fluorescence lifetime (in CC#N): 9.67 ns | fluorescence lifetime (in CC(C)O): 5.5 ns | fluorescence lifetime (in CCCCO): 5.22 ns | fluorescence lifetime (in CCCO): 4.82 ns | fluorescence lifetime (in CCO): 4.85 ns | fluorescence lifetime (in CCOC(C)=O): 5.48 ns | fluorescence lifetime (in CCOCC): 2.39 ns | fluorescence lifetime (in CO): 3.61 ns

c1ccc2c(c1)CCc1c-2cnc2c1-c1ccccc1CC2
fluorescence lifetime (in C1CCOC1): 3.33 ns | fluorescence lifetime (in CC#N): 3.66 ns | fluorescence lifetime (in CCCCCC): 3.14 ns | fluorescence lifetime (in CCOC(C)=O): 3.46 ns | fluorescence lifetime (in CO): 3.96 ns | fluorescence lifetime (in CS(C)=O): 3.88 ns | fluorescence lifetime (in Cc1ccccc1): 3.24 ns | fluorescence lifetime (in ClCCl): 3.67 ns

CCCCCCCCC1(CCCCCCCC)c2ccccc2-c2ccc(N(c3ccc(-n4c5ccccc5c5ccccc54)cc3)c3ccc4c(c3)C(CCCCCCCC)(CCCCCCCC)c3ccccc3-4)cc21
fluorescence lifetime (in C1CCOC1): 1.8 ns | fluorescence lifetime (in CC#N): 1.8 ns | fluorescence lifetime (in CC(C)=O): 1.75 ns | fluorescence lifetime (in CCCCCC): 1.68 ns | fluorescence lifetime (in CCCCOCCCC): 1.78 ns | fluorescence lifetime (in CCN(CC)CC): 1.69 ns | fluorescence lifetime (in CCOC(C)=O): 1.66 ns | fluorescence lifetime (in CCOCC): 1.97 ns | fluorescence lifetime (in CN(C)C=O): 1.87 ns | fluorescence lifetime (in Cc1ccccc1): 1.75 ns | fluorescence lifetime (in ClCCl): 1.62 ns

c1ccc2ccccc2c1
fluorescence lifetime (in C1CCCCC1): 168 ns and 96 ns

COc1ccc(N2c3ccc4ccccc4c3-c3c4ccccc4cc[n+]3[B-]2(c2ccccc2)c2ccccc2)cc1
fluorescence lifetime (in Cc1ccccc1): 0.25 ns

CCCCCCCCCCCCOc1cc2cc(N(C)C)ccc2cc1C=C(C#N)C#N
fluorescence lifetime (in CS(C)=O): 2.2 ns

c1ccc(-c2cnc3nn4ccccc4c3c2)cc1
fluorescence lifetime (in C1CCOC1): 4.7 ns

CCCCCCCCCCCCN1C(=O)c2ccc3c4ccc5c6c(ccc(c7ccc(c2c37)C1=O)c64)C(=O)N(CCCCCCCCCCCC)C5=O
fluorescence lifetime (in CN(C)C=O): 4.1 ns

O=Cc1ccc2ccc3cccc4ccc1c2c34
fluorescence lifetime (in C1CCOC1): 127 ns | fluorescence lifetime (in CC#N): 8.76 ns | fluorescence lifetime (in CCCCCC): 7.43 ns | fluorescence lifetime (in CCO): 6.44 ns | fluorescence lifetime (in CN(C)C=O): 64.8 ns | fluorescence lifetime (in CO): 0.953 ns | fluorescence lifetime (in Cc1ccccc1): 15.3 ns | fluorescence lifetime (in ClCCl): 3.45 ns

COc1ccc(N(c2ccccc2)c2ccccc2)cc1
fluorescence lifetime (in Cc1ccccc1): 1.89 ns

CC1(C)OB(c2cc3ccc4cc(B5OC(C)(C)C(C)(C)O5)cc5ccc(c2)c3c45)OC1(C)C
fluorescence lifetime (in Cc1ccccc1): 36 ns

N#Cc1cc(C#Cc2c(F)c(F)nc(F)c2F)c(C#Cc2c(F)c(F)nc(F)c2F)cc1C#N
fluorescence lifetime (in CC#N): 3.92 ns

O=C1c2cc(-c3ccccc3)ccc2-c2ccc(-c3ccccc3)cc21
fluorescence lifetime (in C1CCOC1): 1 ns

Cc1ccc(C2=C3C=CC(/C=C/c4ccccc4)=[N+]3[B-](F)(F)n3c(Cl)ccc32)cc1
fluorescence lifetime (in C1CCCCC1): 3.64 ns | fluorescence lifetime (in C1CCOC1): 3.45 ns | fluorescence lifetime (in C1COCCO1): 3.68 ns | fluorescence lifetime (in CCOC(C)=O): 3.43 ns | fluorescence lifetime (in CO): 3.16 ns | fluorescence lifetime (in Cc1ccccc1): 3.68 ns | fluorescence lifetime (in ClC(Cl)Cl): 3.98 ns
